Measured values: article PMC6102592, “Synthesis of New Benzothiazole Acylhydrazones as Anticancer Agents” (Molecules : A Journal of Synthetic Chemistry and Natural …, 2018)
pIC50: −log10 of the molar value.

Legend:
[1] = system: A549 (Human lung adenocarcinoma epithelial cell line); assay: MTT cytotoxicity test, A549; assay type: cell-based
Method: (§1) MTT assay, depending on the capability of metabolically active cells that change the pale yellow MTT colour to a spectrophotometrically measured blue formazan salt, is one of the most favoured cytotoxicity tests. We assessed the antitumor potential of new benzothiazole-acylhydrazones on A549, C6, MCF-7, and HT-29 cell lines with various concentrations (1 mM, 0.316 mM, 0.1 mM, 0.0316 mM, 0.01 mM, 0.00316 mM, 0.001 mM, 0.000316 mM). In addition, the cytotoxic activities of compounds 4a–4j were evaluated against healthy NIH3T3 cells, owing to show the selectivity towards carcinogenic cells. The IC50 values of the compounds against cell lines are represented in Table 1.
(§2) Metabolic activity of viable cells was measured by MTT assay based on the reduction of 3-(4,5-dimethylthiazol-2-yl)-2,5-diphenyltetrazolium salt to a formazan product, which can be quantified spectrophotometrically to determine the percent of viable cells.
(§3) Anticancer activities of new benzothiazole acylhydrazones derivatives were evaluated against A549 C6, MCF-7 and HT-29 cell lines. The selectivity of their cytotoxic effects was evaluated on NIH/3T3 mouse embryonic fibroblast cells. NIH/3T3 cells were incubated in DMEM supplemented with fetal calf serum, penicillin (100 IU/mL), streptomycin ([…]) and 7.5% NaHCO3 at 37 °C in a humidified atmosphere of 95% air and 5% CO2. Carcinogenic cells were incubated in RPMI medium supplemented with fetal calf serum, penicillin (100 IU/mL), streptomycin ([…]) and 7.5% NaHCO3 at 37 °C in a humidified atmosphere of 95% air and 5% CO2. All cell lines were seeded at a density of 1 × 10^4 cells into the 96-well plates. After 24 h of incubating period, the culture mediums were removed and test compounds were added at concentrations of 0.000316–1 mM. After a 24 h incubation period, OD of samples were measured by a microplate reader (Biotek, Winooski, VT, USA) at 540 nm. Inhibition % at concentrations was determined using the formula below and IC50 values were calculated by nonlinear regression analysis using the SigmaPlot v.10 package program (Manufacturer, City, US State abbrev. if applicable, Country).

[2] = system: C6 (Rat brain glioma cell line); assay: MTT cytotoxicity test, C6; assay type: cell-based; details: 24 h incubation
Method: as §1, §2, §3

[3] = system: MCF-7 (Human breast adenocarcinoma cell line); assay: MTT cytotoxicity test, MCF-7; assay type: cell-based
Method: as §1, §2, §3

[4] = system: HT-29 (Human colorectal adenocarcinoma cell line); assay: MTT cytotoxicity test, HT-29; assay type: cell-based
Method: as §1, §2, §3

[5] = system: NIH3T3 (Mouse embryo fibroblast cell line); assay: MTT cytotoxicity test, healthy NIH3T3 cells; assay type: cell-based; details: for pIC50: MTT, 24 h incubation, healthy cells
Method: as §1, §2, §3

[6] = system: DNA synthesis of C6 cells; assay: DNA synthesis inhibition assay (BrdU cell proliferation); assay type: cell-based, Rat; details: C6, IC50/4 to 4 × IC50, 24 h
Method: This immunostaining assay is related to detecting the attendance of BrdU into nuclear DNA instead of thymidine during S-phase of the cell cycle using specific anti-BrdU antibodies. Thus, this study was performed to evaluate inhibitory effects of compounds 4d, 4e, and 4h on proliferation of C6 cell lines. […] Figure 2 represents the DNA synthesis inhibitory effect of compounds 4d, 4e, and 4h on C6 cells.
The BrdU cell proliferation method was performed to analyse the effects of compounds 4d, 4e and 4h on proliferation of C6 cells. C6 cells were seeded into the 96-well plates at a density of 1 × 10^4 cells. […] At the end of the incubation period, BrdU solution was added and cells were reincubated for 2 h at 37 °C. Anti-BrdU-POD ([…]) was added and the mixture was incubated for 90 min. Microplates were washed with PBS for three times. After adding substrate solution, the mixture was incubated for 15 min. OD of the wells were determined at 492 nm.

C6 cell line = assay: Flow cytometric analysis (Annexin V-FITC/PI); assay type: cell-based, Rat; details: for Q1 percentage of necrotic cells / Q2 percentage of late apoptotic cells / Q3 percentage of viable cells / Q4 percentage of early apoptotic cells / viability at 15 µM: 24 h; for percentages of apoptotic cells: C6, at IC50 concentrations, 24 h (sum of Q2 and Q4); for viability at 15 µM: Rattus norvegicus, read-out: Q3 percentage of viable cells
Text: In the therapy of cancer, apoptosis, or programmed cell death, is one of the distinguished mechanisms of cytotoxic agents. It is an important approach to express the cell death pathway and most of the anticancer drugs induce apoptosis in tumor cells. Annexin V-FITC is a reagent that can detect and measure quantitate of apoptotic cells by flow cytometry. Staining cells with PI and Annexin V-FITC show the differences between live, apoptotic, dead, and late apoptotic or necrotic cells. Thus, this method provides evidence on the pathway of cell death.
Death pathway of the carcinogenic cell lines was detected by Annexin V-FITC Apoptosis Detection Kit (BD, Pharmingen, City, US State abbrev. if applicable, Country) as reported in the manufacturer’s instructions. […] After 24 h incubation period, cells were harvested by centrifugation at 1200 rpm for 5 min. at room temperature, rinsed with cold water twice and then suspended at 1 × 10^6 cells/mL concentration in Annexin V-FITC binding buffer. Propidium iodide ([…]) and annexin V-FITC ([…]) were added for staining the cells and the fluorescence measurements was performed using a flow cytometer. FCSExpress software (version, Manufacturer, City, US State abbrev. if applicable, Country) was used to display the percent of normal and apoptotic cells at different stages. […] The experiments were carried out in triplicate.

[7] = Homo sapiens, A549, 24 h incubation
[8] = Homo sapiens, MCF7, 24 h incubation
[9] = Homo sapiens, HT-29, 24 h incubation

Structure (SMILES) | pIC50 [1, 7] | pIC50 ([2]; Rattus norvegicus, Glioma cell) | pIC50 [3, 8] | pIC50 [4, 9] | pIC50 ([5]; Mus musculus, NIH3T3) | melting point [°C] | Q1 percentage of necrotic cells (C6 cell line; C6, IC50 (0.03 mM)) [%] | Q2 percentage of late apoptotic cells (C6 cell line; C6, IC50 (0.03 mM)) [%] | Q4 percentage of early apoptotic cells (C6 cell line; C6, IC50 (0.03 mM)) [%] | percentages of apoptotic cells (C6 cell line) [%] | other results
COc1ccc2sc(SCC(=O)NN=Cc3ccc(N4CCCCC4C)cc3)nc2c1 (stereo not shown) [Compound 4g, 2-((5-Methoxybenzothiazol-2-yl)thio)-N’-(4-(2-methylpiperidin-1-yl)benzylidene)acetohydrazide] | < 3.00 | < 3.00 | < 3.00 | < 3.00 | 4.00 | 138 to 139 | – | – | – | – | –
COc1ccc2sc(SCC(=O)NN=Cc3ccc(N4CCC(C)CC4)cc3)nc2c1 [Compound 4i, 2-((5-Methoxybenzo[d]thiazol-2-yl)thio)-N’-(4-(4-methylpiperidin-1-yl)benzylidene)acetohydrazide] | 3.31 | 4.00 | 3.52 | 3.00 | 4.52 | 149 to 150 | – | – | – | – | –
O=C(CSc1nc2cc(Cl)ccc2s1)NN=Cc1ccc(N2CCCCC2)cc1 [Compound 4a, 2-((5-Chlorobenzothiazol-2-yl)thio)-N’-(4-(piperidin-1-yl)benzylidene)acetohydrazide] | < 3.00 | 4.00 | 3.31 | 3.28 | 4.00 | 178 to 179 | – | – | – | – | –
CC1CCN(c2ccc(C=NNC(=O)CSc3nc4cc(Cl)ccc4s3)cc2)CC1 [Compound 4d, 2-((5-Chlorobenzothiazol-2-yl)thio)-N’-(4-(4-methylpiperidin-1-yl)benzylidene)acetohydrazide] | < 3.00 | 4.52 | 4.00 | 3.52 | < 3.00 | – | 6.9 | 3.1 | 2.4 | 5.5 | DNA synthesis inhibitory activity compared with cisplatin [6]: higher inhibition potency than cisplatin at all concentrations; Q1 percentage of necrotic cells (C6 cell line; C6, 2 × IC50 (0.06 mM)): 4.5%; Q2 percentage of late apoptotic cells (C6 cell line; C6, 2 × IC50 (0.06 mM)): 7.1%; Q3 percentage of viable cells (C6 cell line; C6, 2 × IC50 (0.06 mM)): 74.5%; Q4 percentage of early apoptotic cells (C6 cell line; C6, 2 × IC50 (0.06 mM)): 13.9%; Q3 percentage of viable cells (C6 cell line; C6, IC50 (0.03 mM)): 87.6%; Q1 percentage of necrotic cells (C6 cell line; C6, IC50/2 (0.015 mM)): 16.4%; Q2 percentage of late apoptotic cells (C6 cell line; C6, IC50/2 (0.015 mM)): 12.3%; Q4 percentage of early apoptotic cells (C6 cell line; C6, IC50/2 (0.015 mM)): 0.1%; viability at 15 µM (C6 cell line; C6, IC50/2 (0.015 mM)): 71.2%
CC1CCCN(c2ccc(C=NNC(=O)CSc3nc4cc(Cl)ccc4s3)cc2)C1 (stereo not shown) [Compound 4c, 2-((5-Chlorobenzothiazol-2-yl)thio)-N’-(4-(3-methylpiperidin-1-yl)benzylidene)acetohydrazide] | 3.28 | 4.00 | 4.00 | 3.52 | 4.52 | 149 to 150 | – | – | – | – | –
COc1ccc2sc(SCC(=O)NN=Cc3ccc(N4CCCCC4)cc3)nc2c1 [Compound 4f, 2-((5-Methoxybenzothiazol-2-yl)thio)-N’-(4-(piperidin-1-yl)benzylidene)acetohydrazide] | < 3.00 | < 3.00 | < 3.00 | < 3.00 | 4.52 | 138 to 139 | – | – | – | – | –
N.N.[Cl][Pt][Cl] [Cisplatin, reference compound] | – | – | – | – | – | – | 3.5 | 18.3 | 2.6 | 20.9 | pIC50 ([1]; 24 h incubation): 4.22; pIC50 [2]: 4.52; pIC50 ([3]; 24 h incubation): 4.30; pIC50 ([4]; 24 h incubation): 4.22; pIC50 [5]: < 3.00
CC1CCCCN1c1ccc(C=NNC(=O)CSc2nc3cc(Cl)ccc3s2)cc1 (stereo not shown) [Compound 4b, 2-((5-Chlorobenzothiazol-2-yl)thio)-N’-(4-(2-methylpiperidin-1-yl)benzylidene)acetohydrazide] | 3.00 | 4.00 | < 3.00 | 3.00 | 4.00 | 138 to 139 | – | – | – | – | –
COc1ccc2sc(SCC(=O)NN=Cc3ccc(N4CCCC(C)C4)cc3)nc2c1 (stereo not shown) [Compound 4h, 2-((5-Methoxybenzo[d]thiazol-2-yl)thio)-N’-(4-(3-methylpiperidin-1-yl)benzylidene)acetohydrazide] | < 3.00 | 4.52 | < 3.00 | < 3.00 | 4.00 | – | 8.6 | 7.4 | 4.6 | 12.0 | DNA synthesis inhibitory activity compared with cisplatin [6]: could not display the same ability as compounds 4d and 4e to inhibit DNA synthesis; Q1 percentage of necrotic cells (C6 cell line; C6, 2 × IC50 (0.06 mM)): 5.4%; Q2 percentage of late apoptotic cells (C6 cell line; C6, 2 × IC50 (0.06 mM)): 10.5%; Q3 percentage of viable cells (C6 cell line; C6, 2 × IC50 (0.06 mM)): 75.2%; Q4 percentage of early apoptotic cells (C6 cell line; C6, 2 × IC50 (0.06 mM)): 8.9%; Q3 percentage of viable cells (C6 cell line; C6, IC50 (0.03 mM)): 79.4%; Q1 percentage of necrotic cells (C6 cell line; C6, IC50/2 (0.015 mM)): 10.8%; Q2 percentage of late apoptotic cells (C6 cell line; C6, IC50/2 (0.015 mM)): 4.9%; Q4 percentage of early apoptotic cells (C6 cell line; C6, IC50/2 (0.015 mM)): 0.3%; viability at 15 µM (C6 cell line; C6, IC50/2 (0.015 mM)): 84.1%
COc1ccc(N2CCN(c3ccc(C=NNC(=O)CSc4nc5cc(OC)ccc5s4)cc3)CC2)cc1 [Compound 4j, 2-((5-Methoxybenzo[d]thiazol-2-yl)thio)-N’-(4-(4-(4-methoxyphenyl)piperazin-1-yl)benzylidene)acetohydrazide] | < 3.00 | < 3.00 | < 3.00 | < 3.00 | < 3.00 | 199 to 200 | – | – | – | – | –
COc1ccc(N2CCN(c3ccc(C=NNC(=O)CSc4nc5cc(Cl)ccc5s4)cc3)CC2)cc1 [Compound 4e, 2-((5-Chlorobenzothiazol-2-yl)thio)-N’-(4-(4-(4-methoxyphenyl)piperazin-1-yl)benzylidene)acetohydrazide] | 4.52 | 4.52 | 3.52 | < 3.00 | 5.00 | – | 9.8 | 16.0 | 3.5 | 19.5 | selectivity index (SI) ([5]; NIH3T3 versus cancer cells): 0.33; DNA synthesis inhibitory activity compared with cisplatin [6]: higher antiproliferative effect than cisplatin at the concentrations of IC50/2, IC50, 2 × IC50, and 4 × IC50; Q1 percentage of necrotic cells (C6 cell line; C6, 2 × IC50 (0.06 mM)): 10.1%; Q2 percentage of late apoptotic cells (C6 cell line; C6, 2 × IC50 (0.06 mM)): 14.0%; Q3 percentage of viable cells (C6 cell line; C6, 2 × IC50 (0.06 mM)): 73.3%; Q4 percentage of early apoptotic cells (C6 cell line; C6, 2 × IC50 (0.06 mM)): 2.5%; Q3 percentage of viable cells (C6 cell line; C6, IC50 (0.03 mM)): 70.7%; Q1 percentage of necrotic cells (C6 cell line; C6, IC50/2 (0.015 mM)): 13.5%; Q2 percentage of late apoptotic cells (C6 cell line; C6, IC50/2 (0.015 mM)): 3.8%; Q4 percentage of early apoptotic cells (C6 cell line; C6, IC50/2 (0.015 mM)): 0%; viability at 15 µM (C6 cell line; C6, IC50/2 (0.015 mM)): 82.6%
